Laboratory results published in US7659404B2, “Broad spectrum 2-(substituted-amino)-benzothiazole sulfonamide HIV protease inhibitors” (Tibotec Pharmaceuticals Ltd., priority 2001, dated 2010).
Read-outs that look alike come from different tables or passages of the source.

Columns and labels:
virus strain F (R13025) = experiment: microbe, parasite or virus in culture; format: cell-based, HIV; details: FR=EC50(mutant strain)/EC50(HIV-1 strain LAI); strain F
Procedure, shortened: (§1)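 MT4 cells, HIV- or mock-infected, were cultured five days with a range of inhibitor concentrations, and viability was then read by MTT conversion to formazan (isopropanol-solubilized, A540 nm). EC50/EC90 are the concentrations protecting 50%/90% of infected cells from viral cytopathic effect. Fold resistance = EC50(mutant strain)/EC50(HIV-1 LAI).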

virus strain S (R13080) = experiment: microbe, parasite or virus in culture; format: cell-based, HIV; details: FR=EC50(mutant strain)/EC50(HIV-1 strain LAI); strain S
Procedure, shortened: as §1

[1] = Pharmacokinetics after oral dosing in rats (LC-MS); format: in vivo, Whistar rats; details: for concentration at 3 h / Cmax: Wistar, blood, 10 mg/kg, or, rat, 10 mpk, DMSO; for concentration at 3 h: oral, read-out: C3hours; for Cmax: po
Method: (§2) The pharmacokinetic properties of compounds 20, 88 and 90 were tested on rats and dogs. The compounds were evaluated in Whistar rats, source Iffa Credo, weighing approximately 350 g. Before dosing the animals were fasted overnight (approximately 12 h fasting period). The compounds were dissolved in DMSO. The results represented in the table concern the results from the oral dosing of the compounds. Blood was sampled at 30 min, 1 h, 2 h, 3 h, no pre-dose sample was taken. The amount of the compound in the biological sample was determined using LC-MS. In the table below “or” means oral dosing, “mpk” means mg per kilogram.

HIV-1 strain LAI = experiment: Cellular anti-HIV assay in MT4 cells (MTT), wild type laboratory strain; format: cell-based; details: read-out: EC50 value against HIV-1 strain LAI
Method: The compounds of the present invention were examined for anti-viral activity in a cellular assay. […] The cellular assay was performed according to the following procedure.
Cellular Assay Experimental Method:
HIV- or mock-infected MT4 cells were incubated for five days in the presence of various concentrations of the inhibitor. At the end of the incubation period, all HIV-infected cells have been killed by the replicating virus in the control cultures in the absence of any inhibitor. Cell viability is measured by measuring the concentration of MTT, a yellow, water soluble tetrazolium dye that is converted to a purple, water insoluble formazan in the mitochondria of living cells only. Upon solubilization of the resulting formazan crystals with isopropanol, the absorbance of the solution is monitored at 540 nm. The values correlate directly to the number of living cells remaining in the culture at the completion of the five day incubation. The inhibitory activity of the compound was monitored on the virus-infected cells and was expressed as EC50 and EC90. These values represent the amount of the compound required to protect 50% and 90%, respectively, of the cells from the cytopathogenic effect of the virus. The toxicity of the compound was measured on the mock-infected cells and was expressed as CC50, which represents the concentration of compound required to inhibit the growth of the cells by 50%. The selectivity index (SI) (ratio CC50/EC50) is an indication of the selectivity of the anti-HIV activity of the inhibitor.

[2] = Pharmacokinetics after oral dosing in dogs (LC-MS); format: in vivo; details: blood, 10 mg/kg, or, dog, 10 mpk
Method: as §2

[3] = test system: clinically isolated HIV strain H; format: cell-based; details: FR=EC50(mutant strain)/EC50(HIV-1 strain LAI)
Procedure, shortened: as §1

[4] = test system: clinically isolated HIV strain O; format: cell-based; details: FR=EC50(mutant strain)/EC50(HIV-1 strain LAI)
Procedure, shortened: as §1

[5] = test system: clinically isolated HIV strain I; format: cell-based; details: FR=EC50(mutant strain)/EC50(HIV-1 strain LAI)
Procedure, shortened: as §1

[6] = test system: clinically isolated HIV strain T; format: cell-based; details: FR=EC50(mutant strain)/EC50(HIV-1 strain LAI)
Procedure, shortened: as §1

[7] = test system: clinically isolated HIV strain J; format: cell-based; details: FR=EC50(mutant strain)/EC50(HIV-1 strain LAI)
Procedure, shortened: as §1

[8] = Human immunodeficiency virus 1, 120 h, MT4 cells, five days, MTT

Structure (SMILES): CC(C)CN(C[C@@H](O)[C@H](Cc1ccccc1)NC(=O)O[C@H]1CCOC1)S(=O)(=O)c1ccc2nc(NCCN(C)C)sc2c1 [Compound 90]
- fold resistance (FR), strain F (virus strain F (R13025)): 28.8
- fold resistance (FR), strain S (virus strain S (R13080)): 128.8
- concentration at 3 h [1]: 684 ng/mL
- Cmax [1]: 893 ng/mL
- EC50 (HIV-1 strain LAI; [8]): < 50 nM
- Cmax ([2]; DMSO): 550 ng/mL

Structure (SMILES): CC(C)CN(C[C@@H](O)[C@H](Cc1ccccc1)NC(=O)O[C@H]1CO[C@H]2OCC[C@H]21)S(=O)(=O)c1ccc2nc(N(C)CCCN(C)C)sc2c1 [Compound 88]
- fold resistance (FR), strain F (virus strain F (R13025)): 8.7
- fold resistance (FR), strain S (virus strain S (R13080)): 26.3
- concentration at 3 h [1]: 225 ng/mL
- Cmax [1]: 254 ng/mL
- EC50 (HIV-1 strain LAI; [8]): < 50 nM
- Cmax ([2]; (PEG)): 379 ng/mL

Structure (SMILES): CC(C)CN(C[C@@H](O)[C@H](Cc1ccccc1)NC(=O)O[C@H]1CO[C@H]2OCC[C@H]21)S(=O)(=O)c1ccc2nc(NCCN3CCCC3)sc2c1 [Compound 20]
- fold resistance (FR), strain F (virus strain F (R13025)): 0.5
- fold resistance (FR), strain S (virus strain S (R13080)): 0.5
- concentration at 3 h [1]: 401 ng/mL
- Cmax [1]: 1420 ng/mL
- plasma level ([1]; oral dosing, comment on Table 8 (rats and dogs)): high
- EC50 (HIV-1 strain LAI; Human immunodeficiency virus 1, MT4, 120 h): 50 to 500 nM
- fold resistance (FR), strain H [3]: 0.5
- fold resistance (FR), strain O [4]: 0.2
- fold resistance (FR), strain I [5]: 0.4
- fold resistance (FR), strain T [6]: 2.6
- fold resistance (FR), strain J [7]: 0.2
- Cmax ([2]; DMSO): 713 ng/mL
